In general, TGI refers to the concentration giving total growth inhibition. Low values mean greater sensitivity of the cells, high ones lower sensitivity of the cells.

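Grown in 96-well plates, cells were treated for 48 hours with each compound at five concentrations. Insufficient inhibition: endpoint recorded as highest concentration tested. TGI: total growth inhibition.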

What all share (test): DTP human tumour cell line panel, 48 h
Experiment [1] has as its system CAKI-1 renal.
In experiment [2] the test system is HOP-62 NSCLC.
Experiment [3] concerns RXF 393 renal.
Experiment [4] has as its system BT-549 breast.
The test system of experiment [5] is NCI-H522 lung.
The subject of experiment [6] is IGROV1 ovarian.
In experiment [7] the test system is M14 melanoma.
Experiment [8] relates to NCI/ADR-RES ovarian.
Experiment [9] concerns MCF7 breast.
For experiment [10], the system named is LOX IMVI melanoma.
The test system of experiment [11] is MALME-3M melanoma.
The test system of experiment [12] is MDA-MB-435.
In experiment [13] the test system is HCT-116 colon.
The test system of experiment [14] is SW-620 colon.
For experiment [15], the system named is SR leukemia.

Regarding `O=C1NC2ON=C(c3ccccc3)C2C2ON=C(c3ccccc3)N12` (centres undefined), the TGI in experiment [1], in experiment [2], in [3], in experiment [4], in experiment [5] and in experiment [6] was over 100 µM in each case. The concentration for total growth inhibition (TGI) in experiment [7], in experiment [8], in [9], in experiment [10] and in experiment [11] was over 100 µM throughout.
Regarding `CCOC(=O)c1cccn1S(=O)(=O)c1cc(Cl)ccc1NC(=O)CC`, the TGI in experiment [1] is over 100 µM; in [2], over 100 µM; in experiment [12] it was over 100 µM; in experiment [3] it was over 100 µM; in [4], over 100 µM; in [5], 63.1 µM. Further, the TGI in [13], in experiment [6], in experiment [9], in experiment [10] and in [14] was over 100 µM each time.
In the case of `O=C1CCC2C(O)c3cc4c(cc3C(c3ccc5c(c3)OCO5)N12)OCO4` (centres undefined), the TGI in [1] is over 100 µM; in experiment [2] it was 63.7 µM; in experiment [12] it was over 100 µM; in experiment [4], over 100 µM; in experiment [5], over 100 µM; in experiment [13], over 100 µM. Besides, the TGI in [6], in experiment [7], in experiment [8], in [9], in experiment [15] and in experiment [10] was over 100 µM each time. In addition, the TGI in [14] and in [11] was over 100 µM throughout.
For the compound `CCOC(CN(C)C(=O)Nc1cccc2ccccc12)OCC`, the TGI in experiment [1], in experiment [2], in [12], in [3], in experiment [5] and in experiment [13] was over 10 µM throughout. For the same compound, the TGI in [6], in [7], in experiment [8], in experiment [9], in [15] and in experiment [10] was over 10 µM in each case. Also, the TGI in experiment [14] and in experiment [11] was over 10 µM in each case.
As to `O=c1c2c(oc3ccccc13)-c1ccccc1OC2`, the TGI in [1], in [2], in [12], in [4], in experiment [5] and in experiment [13] was over 100 µM throughout. Also, the total growth inhibition concentration (TGI) in experiment [6], in [7], in experiment [8], in experiment [9], in experiment [10] and in [14] was over 100 µM in each case. Also, the TGI in experiment [11] was over 100 µM.
Consider `CS(=O)(=O)c1nc(-c2cc3c(c(S(C)(=O)=O)n2)CCC3)cc2c1CCCCC2`, for which the TGI in [1] was over 100 µM; in experiment [2], 84.8 µM; in experiment [12], over 100 µM; in experiment [3] it was 39.3 µM; in [4], 58.2 µM; in experiment [5], 58.9 µM. The total growth inhibition concentration (TGI) in experiment [13] is over 100 µM; in experiment [6] it was 63.7 µM; in [7], over 100 µM; in experiment [8] it was over 100 µM; in experiment [10], over 100 µM; in [14], over 100 µM. The compound also came in with a TGI in [11] of 99.6 µM.
Regarding `CSc1nc(C#N)c(/N=C\N(C)C)n1C`, the total growth inhibition concentration (TGI) in experiment [1], in experiment [2], in [12], in experiment [3], in [4] and in [5] was over 100 µM each time. In addition, the TGI in experiment [13], in experiment [6], in experiment [7], in experiment [8], in experiment [15] and in experiment [10] was over 100 µM each time. Moreover, the TGI in [14] and in [11] was over 100 µM each time.
As to `N#Cc1c(N)nc(-c2ccc(Cl)cc2)c2c1-c1ccccc1S(=O)(=O)CC2`, the TGI in experiment [1], in [2], in experiment [12], in experiment [4], in [5] and in experiment [13] was over 100 µM in each case. Also, the TGI in [6], in experiment [7], in experiment [8], in experiment [15], in [10] and in experiment [14] was over 100 µM in each case. For the same compound, the TGI in [11] is over 100 µM.
On to `C=CCOc1cccc(C2(O)c3ccccc3C3=NCCCN32)c1` (centres undefined), for which the TGI in experiment [1] is over 86.6 µM; in experiment [2], 38.8 µM; in [12], 26 µM; in experiment [4], over 100 µM; in experiment [5] it was 41.4 µM; in [13], 29.6 µM. Further, the TGI is over 37.4 µM in [6]; 26.1 µM in experiment [7]; over 75.6 µM in experiment [8]; 32 µM in experiment [9]; 32.6 µM in [15]; 29.4 µM in experiment [10]. The TGI in experiment [14] worked out at 28.7 µM; in experiment [11], 35.1 µM.
Turning to `O=[N+]([O-])/C(C(Cl)=C(Cl)Cl)=C(\N1CCOCC1)n1nnc2ccccc21`, the TGI was 31.6 µM in [1]; 36.2 µM in experiment [2]; 41 µM in [12]; 33.1 µM in [4]; 34.1 µM in [5]; over 100 µM in experiment [13]. Moreover, the TGI was found to be 33.4 µM in [7], 65.1 µM in [8], 56.1 µM in [9] and 35.1 µM in [11].
In the case of `O=C1CCCCC/C1=C\c1cccc(Cl)c1`, the TGI in experiment [1] is over 100 µM; in experiment [2], over 100 µM; in [12], 94.4 µM; in experiment [4], over 100 µM; in experiment [5], over 100 µM; in experiment [13], over 100 µM. Also, the TGI in [6] was over 100 µM; in experiment [7] it was over 100 µM; in experiment [15], over 100 µM; in [10], over 100 µM; in [14], 60.1 µM; in experiment [11], over 100 µM.

The values above are taken from PubChem BioAssay (NCI).
